In assay [1] the target is T1, Acetylcholinesterase (Homo sapiens, UniProt P22303).
Description: Inhibition of human recombinant AChE assessed as dissociation constant for enzyme-inhibitor-substrate complex using acetylthiocholine substrate preincubated for 5 mins before substrate addition by Ellman's method
The next assay deals with Cholinesterase (Homo sapiens, UniProt P06276).
The target of assay [2] is T1, Acetylcholinesterase. The source holds these as a separate data set.
Description: Inhibition of human recombinant AChE using acetylthiocholine substrate preincubated for 5 mins before substrate addition by Ellman's method
Assay [3] addresses T1, Acetylcholinesterase. The source holds these as a separate data set.
Description: Inhibition of human recombinant AChE assessed as dissociation constant for enzyme-inhibitor complex using acetylthiocholine substrate preincubated for 5 mins before substrate addition by Ellman's method

Sequence of Cholinesterase (P06276 whole entry): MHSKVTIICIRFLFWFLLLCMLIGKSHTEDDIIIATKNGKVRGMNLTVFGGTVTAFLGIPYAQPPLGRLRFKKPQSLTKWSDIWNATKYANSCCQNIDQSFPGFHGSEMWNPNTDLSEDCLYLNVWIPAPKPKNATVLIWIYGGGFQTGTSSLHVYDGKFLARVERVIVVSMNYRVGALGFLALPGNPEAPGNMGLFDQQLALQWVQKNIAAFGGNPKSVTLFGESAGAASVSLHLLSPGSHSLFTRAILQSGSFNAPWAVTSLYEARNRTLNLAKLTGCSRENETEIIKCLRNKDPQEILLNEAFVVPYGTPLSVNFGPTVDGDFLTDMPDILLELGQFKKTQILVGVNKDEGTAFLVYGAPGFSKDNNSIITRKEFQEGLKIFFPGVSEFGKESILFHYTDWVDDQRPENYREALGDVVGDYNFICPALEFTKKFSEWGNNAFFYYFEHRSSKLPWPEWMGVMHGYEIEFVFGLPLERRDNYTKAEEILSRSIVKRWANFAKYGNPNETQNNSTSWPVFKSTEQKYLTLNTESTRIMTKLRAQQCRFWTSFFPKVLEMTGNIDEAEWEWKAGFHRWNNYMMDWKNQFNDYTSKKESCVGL
T1 sequence (P22303 whole entry): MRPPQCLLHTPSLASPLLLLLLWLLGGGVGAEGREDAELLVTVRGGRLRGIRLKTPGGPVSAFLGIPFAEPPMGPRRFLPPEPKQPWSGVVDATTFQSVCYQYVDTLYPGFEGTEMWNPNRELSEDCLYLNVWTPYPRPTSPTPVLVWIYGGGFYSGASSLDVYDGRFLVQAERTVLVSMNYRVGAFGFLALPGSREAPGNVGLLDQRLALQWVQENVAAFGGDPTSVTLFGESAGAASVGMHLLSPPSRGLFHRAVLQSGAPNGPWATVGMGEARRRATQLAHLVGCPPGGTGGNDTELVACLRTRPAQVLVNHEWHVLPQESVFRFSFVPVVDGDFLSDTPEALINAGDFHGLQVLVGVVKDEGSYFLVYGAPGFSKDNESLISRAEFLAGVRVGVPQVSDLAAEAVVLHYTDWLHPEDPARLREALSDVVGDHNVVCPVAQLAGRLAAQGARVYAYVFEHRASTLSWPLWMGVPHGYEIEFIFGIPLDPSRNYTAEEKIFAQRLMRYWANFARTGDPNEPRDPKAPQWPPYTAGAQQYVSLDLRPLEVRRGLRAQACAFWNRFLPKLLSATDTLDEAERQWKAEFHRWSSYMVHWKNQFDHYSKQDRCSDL

With `O=C(CCN1CCCCC1)N1CCN(CCNc2c3c(nc4ccccc24)CCCC3)CC1`, the Ki (commonly a measure of affinity in units of concentration, obtained from inhibition or displacement) was 76.1 nM on Acetylcholinesterase [1] and 16.8 nM at Acetylcholinesterase [3]. Besides, the IC50 (as a rule, the concentration needed to halve the response being measured) on Cholinesterase is 77.8 nM; on Acetylcholinesterase [2] it was 51.7 nM.

`CN(CCC(=O)N1CCN(CCNc2c3c(nc4ccccc24)CCCC3)CC1)C1CCCCC1`: the Ki amounted to 0.318 nM on Acetylcholinesterase [1] and 0.38 nM on Acetylcholinesterase [3]. Also, the half-inhibitory concentration (IC50) came to 63.7 nM against Cholinesterase and 14.9 nM on Acetylcholinesterase [2].

`CCN(CCC(=O)N1CCN(CCNc2c3c(nc4ccccc24)CCCC3)CC1)C1CCCCC1`: the Ki was found to be 3.73 nM at Acetylcholinesterase [1] and 1.35 nM on Acetylcholinesterase [3]. In addition, the figures for the IC50 against Cholinesterase and at Acetylcholinesterase [2] were 41.2 nM and 4.97 nM, respectively.

Regarding `CN(CCC(=O)N1CCN(CCNc2c3c(nc4ccccc24)CCCC3)CC1)c1ccccc1`, the Ki was determined as 85.5 nM on Acetylcholinesterase [1] and 13.7 nM on Acetylcholinesterase [3]. Further, the half-inhibitory concentration (IC50) came to 33.7 nM against Cholinesterase and 70.3 nM against Acetylcholinesterase [2].

Take `CN(CCCN1CCN(CCNc2c3c(nc4ccccc24)CCCC3)CC1)C1CCCCC1`: the Ki at Acetylcholinesterase [1] was found to be 47.6 nM; at Acetylcholinesterase [3], 10.3 nM. Besides, the IC50 against Cholinesterase turned out to be 137 nM; against Acetylcholinesterase [2], 40.7 nM.

On to `CCN(CCCN1CCN(CCNc2c3c(nc4ccccc24)CCCC3)CC1)C1CCCCC1`, for which the IC50 against Cholinesterase amounted to 126 nM; at Acetylcholinesterase [2], 194 nM.

For `CN(CCCN1CCN(CCNc2c3c(nc4ccccc24)CCCC3)CC1)c1ccccc1`, the values for the Ki on Acetylcholinesterase [1] and on Acetylcholinesterase [3] were 24.7 nM and 80 nM, respectively. For the same molecule, the IC50 stood at 211 nM at Cholinesterase and 84.8 nM against Acetylcholinesterase [2].

As for `O=C(CCNCCNc1c2c(nc3ccccc13)CCCC2)N1CCN(CCNc2c3c(nc4ccccc24)CCCC3)CC1`, the values for the concentration for half-maximal inhibition (IC50) on Cholinesterase and on Acetylcholinesterase [2] were 1520 nM and 4.49 nM, respectively.
